In ChEMBL document CHEMBL5331114, “Discovery of Pyxinol Amide Derivatives Bearing Amino Acid Residues as Nonsubstrate Allosteric Inhibitors of P-Glycoprotein-Mediated Multidrug Resistance” (J Med Chem, 2023):

Experiments:
[1] = Cytotoxicity against human KBV Cells assessed as cell survival rate at 10 uM incubated for 72 hrs by MTT assay; type: functional; settings: read-out: Survival
[2] = Reversal of multidrug resistance in human KBV Cells assessed as increase in PTX-induced cytotoxicity by measuring cell survival rate at 10 uM incubated for 72 hrs in presence of paclitaxel by MTT assay relative to control; type: functional; settings: read-out: Survival
[3] = Reversal of multidrug resistance in human KBV Cells assessed as increase in PTX-induced cytotoxicity by measuring cell survival rate at 5 uM incubated for 72 hrs in presence of paclitaxel by MTT assay relative to control; type: functional; settings: read-out: Survival
[4] = Reversal of multidrug resistance in human KBV Cells assessed as reversal fold of paclitaxel IC50 at 5 uM incubated for 72 hrs in presence of paclitaxel by MTT assay; type: functional
[5] = Reversal of multidrug resistance in human KBV Cells assessed as reversal fold of paclitaxel IC50 at 10 uM incubated for 72 hrs in presence of paclitaxel by MTT assay; type: functional
[6] = Drug accumulation in human KB cells at 10 uM incubated for 4 hrs by LC-MS/MS analysis; type: ADME, cell-based
[7] = Drug accumulation in human KBV cells at 10 uM incubated for 4 hrs by LC-MS/MS analysis; type: ADME, cell-based
[8] = Induction of cell cycle arrest in human KBV cells assessed as accumulation of cells at Sub-G1 phase at 10 uM incubated for 24 hrs by flow cytometry analysis (reference value: 1.24 +/- 0.14%); type: functional
[9] = Induction of cell cycle arrest in human KBV cells assessed as accumulation of cells at G1-G0 phase at 10 uM incubated for 24 hrs by flow cytometry analysis (reference value: 62.34 +/- 0.24%); type: functional
[10] = Induction of cell cycle arrest in human KBV cells assessed as accumulation of cells at S phase at 10 uM incubated for 24 hrs by flow cytometry analysis (reference value: 12.42 +/- 0.41%); type: functional
[11] = Induction of cell cycle arrest in human KBV cells assessed as accumulation of cells at G2-M phase at 10 uM incubated for 24 hrs by flow cytometry analysis (reference value: 24.94 +/- 0.21%); type: functional
[12] = Induction of Ptx-mediated cell cycle arrest in human KBV cells assessed as accumulation of cells at Sub-G1 phase at 10 uM incubated for 24 hrs in presence of paclitaxel by flow cytometry analysis (reference value: 1.21 +/- 0.3%); type: functional
[13] = Induction of Ptx-mediated cell cycle arrest in human KBV cells assessed as accumulation of cells at G1-G0 phase at 10 uM incubated for 24 hrs in presence of paclitaxel by flow cytometry analysis (Rvb =57.76 +/- 0.78%); type: functional
[14] = Induction of Ptx-mediated cell cycle arrest in human KBV cells assessed as accumulation of cells at S phase at 10 uM incubated for 24 hrs in presence of paclitaxel by flow cytometry analysis (Rvb =16.63 +/- 0.4%); type: functional
[15] = Induction of Ptx-mediated cell cycle arrest in human KBV cells assessed as accumulation of cells at G2-M phase at 10 uM incubated for 24 hrs in presence of paclitaxel by flow cytometry analysis (Rvb =25.34 +/- 0.92%); type: functional

SMILES	viability at 10 µM [1] [%]	viability at 10 µM [2] [%]	viability at 5 µM [3] [%]	fold change (FC) [4]	fold change (FC) [5]	also measured
CC(C)(C)OC(=O)N[C@@H](Cc1ccccc1)C(=O)N[C@H]1CC[C@]2(C)[C@H]3C[C@@H](O)[C@@H]4[C@@H]([C@]5(C)CC[C@@H](C(C)(C)O)O5)CC[C@@]4(C)[C@]3(C)CC[C@H]2C1(C)C	102	24	31	21	49	–
CC(C)[C@H](N)C(=O)N[C@H]1CC[C@]2(C)[C@H]3C[C@@H](O)[C@@H]4[C@@H]([C@]5(C)CC[C@H](C(C)(C)O)O5)CC[C@@]4(C)[C@]3(C)CC[C@H]2C1(C)C	74	32	34	36	46	–
CC(C)(O)[C@@H]1CC[C@@](C)([C@H]2CC[C@]3(C)[C@@H]2[C@H](O)C[C@@H]2[C@@]4(C)CC[C@H](NC(=O)[C@@H](N)CC(=O)O)C(C)(C)[C@@H]4CC[C@]23C)O1	90	88	84	–	–	–
CC(C)(O)[C@@H]1CC[C@@](C)([C@H]2CC[C@]3(C)[C@@H]2[C@H](O)C[C@@H]2[C@@]4(C)CC[C@H](NC(=O)[C@@H]5CCCN5)C(C)(C)[C@@H]4CC[C@]23C)O1	78	58	83	–	–	–
CC(C)(O)[C@H]1CC[C@@](C)([C@H]2CC[C@]3(C)[C@@H]2[C@H](O)C[C@@H]2[C@@]4(C)CC[C@H](NC(=O)[C@@H](N)Cc5ccccc5)C(C)(C)[C@@H]4CC[C@]23C)O1	85	29	33	56	321	–
CC(C)(O)[C@H]1CC[C@@](C)([C@H]2CC[C@]3(C)[C@@H]2[C@H](O)C[C@@H]2[C@@]4(C)CC[C@H](NC(=O)[C@@H](N)CC(=O)O)C(C)(C)[C@@H]4CC[C@]23C)O1	95	100	96	–	–	–
CC(C)(C)OC(=O)C[C@H](NC(=O)OC(C)(C)C)C(=O)N[C@H]1CC[C@]2(C)[C@H]3C[C@@H](O)[C@@H]4[C@@H]([C@]5(C)CC[C@@H](C(C)(C)O)O5)CC[C@@]4(C)[C@]3(C)CC[C@H]2C1(C)C	94	28	33	61	130	Drug uptake [6]: Not Active; Drug uptake [7]: Not Active
CC(C)(O)[C@@H]1CC[C@@](C)([C@H]2CC[C@]3(C)[C@@H]2[C@H](O)C[C@@H]2[C@@]4(C)CC[C@H](OC(=O)[C@@H]5CCCN5)C(C)(C)[C@@H]4CC[C@]23C)O1	113	116	113	–	–	–
CC(C)(O)[C@H]1CC[C@@](C)([C@H]2CC[C@]3(C)[C@@H]2[C@H](O)C[C@@H]2[C@@]4(C)CC[C@H](NC(=O)[C@@H](N)CCCCN)C(C)(C)[C@@H]4CC[C@]23C)O1	116	112	110	–	–	–
COc1ccc(CCN(C)CCCC(C#N)(c2ccc(OC)c(OC)c2)C(C)C)cc1OC (stereo not drawn)	–	41	–	–	–	Activity [8]: 1.07%; Activity [9]: 58.36%; Activity [10]: 14.59%; Activity [11]: 26.78%; Activity [12]: 8.56%; Activity [13]: 39.76%; Activity [14]: 21.71%; Activity [15]: 37.67%
CC(C)(O)[C@@H]1CC[C@@](C)([C@H]2CC[C@]3(C)[C@@H]2[C@H](O)C[C@@H]2[C@@]4(C)CC[C@H](NC(=O)[C@@H](N)CCCCN)C(C)(C)[C@@H]4CC[C@]23C)O1	87	88	90	–	–	–
COc1cc2c(cc1OC)CN(CCc1ccc(NC(=O)c3cc(OC)c(OC)cc3NC(=O)c3cnc4ccccc4c3)cc1)CC2	–	–	–	113	150	–
CC(C)(C)OC(=O)N1CCC[C@H]1C(=O)O[C@H]1CC[C@]2(C)[C@H]3C[C@@H](O)[C@@H]4[C@@H]([C@]5(C)CC[C@@H](C(C)(C)O)O5)CC[C@@]4(C)[C@]3(C)CC[C@H]2C1(C)C	103	35	66	–	–	–
CC(C)(C)OC(=O)N[C@@H](Cc1ccc(OC(C)(C)C)cc1)C(=O)N[C@H]1CC[C@]2(C)[C@H]3C[C@@H](O)[C@@H]4[C@@H]([C@]5(C)CC[C@@H](C(C)(C)O)O5)CC[C@@]4(C)[C@]3(C)CC[C@H]2C1(C)C	85	19	30	35	209	Drug uptake [6]: Not Active; Drug uptake [7]: Not Active
CC(C)(C)OC(=O)NCCCCCC(=O)N[C@H]1CC[C@]2(C)[C@H]3C[C@@H](O)[C@@H]4C([C@]5(C)CC[C@H](C(C)(C)O)O5)CC[C@@]4(C)[C@]3(C)CC[C@H]2C1(C)C (stereo partly drawn)	98	36	44	–	–	Drug uptake [6]: Not Active; Drug uptake [7]: Not Active
CC(C)(O)[C@@H]1CC[C@@](C)([C@H]2CC[C@]3(C)[C@@H]2[C@H](O)C[C@@H]2[C@@]4(C)CC[C@H](NC(=O)[C@@H](N)Cc5ccccc5)C(C)(C)[C@@H]4CC[C@]23C)O1	89	36	67	–	–	–
CC(C)(O)[C@H]1CC[C@@](C)([C@H]2CC[C@]3(C)[C@@H]2[C@H](O)C[C@@H]2[C@@]4(C)CC[C@H](NC(=O)[C@@H](N)Cc5ccc(O)cc5)C(C)(C)[C@@H]4CC[C@]23C)O1	93	35	59	–	–	–
CC(C)(C)OC(=O)N1CCC[C@H]1C(=O)N[C@H]1CC[C@]2(C)[C@H]3C[C@@H](O)[C@@H]4[C@@H]([C@]5(C)CC[C@@H](C(C)(C)O)O5)CC[C@@]4(C)[C@]3(C)CC[C@H]2C1(C)C	111	30	44	–	–	–
CC(C)(C)OC(=O)N[C@@H](Cc1ccccc1)C(=O)N[C@H]1CC[C@]2(C)[C@H]3C[C@@H](O)[C@@H]4[C@@H]([C@]5(C)CC[C@H](C(C)(C)O)O5)CC[C@@]4(C)[C@]3(C)CC[C@H]2C1(C)C	104	24	30	22	82	–
CC(C)(O)[C@@H]1CC[C@@](C)([C@H]2CC[C@]3(C)[C@@H]2[C@H](O)C[C@@H]2[C@@]4(C)CC[C@H](NC(=O)[C@@H](N)Cc5ccc(O)cc5)C(C)(C)[C@@H]4CC[C@]23C)O1	91	71	88	–	–	–
